Test system: CHIKV
Format: cell-based, chikungunya virus

Substance “s16459 (GATGGATCCATGTAATACA; chemistry not given here)” has a Score_si4 of 0.81.
“s16461 (GGTCAATCCTAGTATCTCT; chemistry not given here)” was tested, and the Score_si3 was 0.88.
In the case of “s16633 (CAACCACAATGTTCGTAAA; chemistry not given here)”, the Score_si3 is reported as 1.99.
For “s16634 (GCATAGTTTCGGTCATCTA; chemistry not given here)”, the Score_si1 was 2.03.
For “s16635 (GAGCACTACTTGTACATGA; chemistry not given here)”, the Score_si2 was 2.02.
For “s16837 (CAATGATCCAATCCACGAA; chemistry not given here)”, the Score_si1 was 1.36.
In the case of “s16996 (CAACATTGGTGGGAATGCA; chemistry not given here)”, the Score_si2 is reported as 1.51.
“s16997 (CAGCTTCCATTATGCCCAA; chemistry not given here)” gave a Score_si3 of 0.97.
Work on “s16998 (GAAATTCCATGTCATTGTA; chemistry not given here)” yielded a Score_si4 of 0.65.
“s16999 (GCACGTAACAGCTAAGGAA; chemistry not given here)” showed a Score_si2 of 1.29.
“s17000 (GATGAAAGGTTACAATCCA; chemistry not given here)” was tested, and the Score_si3 was 1.29.
“s17018 (GGAAATAGGTCTAGTACTA; chemistry not given here)” was tested, and the Score_si3 was 1.2.
With “s17019 (CCACGTGATAAATCAAGAA; chemistry not given here)” the Score_si2 was 1.29.
Work on “s17187 (GGATTGACCTCACCCAGAA; chemistry not given here)” yielded a Score_si1 of 2.03.
“s17301 (GCCTGGTATTTTGAAATCA; chemistry not given here)” showed a Score_si3 of 0.7.
In the case of “s17302 (GCTCCTTTAGGTTATGATA; chemistry not given here)”, the Score_si4 is reported as -0.05.
“s17590 (CAACAGTTCTCAGACCAAA; chemistry not given here) [reference compound]” gave a Score_si2 of -0.8.
In the case of “s17591 (CGATATGAACCTGACAGTA; chemistry not given here) [reference compound]”, the Score_si3 is reported as -0.15.
For “s17592 (GCAACTCTCCTTCACCAAT; chemistry not given here) [reference compound]”, the Score_si4 was -0.08.
In the case of “s17802 (GGAGTTAAACATAGATGTA; chemistry not given here)”, the Score_si3 is reported as 1.28.
“s17901 (GGAAATCGGCCTACAAGAT; chemistry not given here)” gave a Score_si3 of 1.51.
Work on “s18074 (CCTCGAGACTATACGGTTA; chemistry not given here) [reference compound]” yielded a Score_si4 of -0.5.
“s18076 (GAAATACCCTATTACCAAA; chemistry not given here) [reference compound]” gave a Score_si3 of -0.61.
Substance “s18077 (CCTGTTCATTGATCGAACA; chemistry not given here) [reference compound]” has a Score_si3 of -0.59.
“s18079 (CAATAGTAAAGGGATATAA; chemistry not given here) [reference compound]” was tested, and the Score_si4 was -0.28.
“s18239 (CGGTGACTCTTTATGCACA; chemistry not given here)” was tested, and the Score_si2 was 1.37.
“s18240 (GATTGATGCTGGAAGTAGA; chemistry not given here)” showed a Score_si3 of 1.21.
Substance “s18241 (GCTTGATGGTTCAACTCCA; chemistry not given here)” has a Score_si1 of 2.01.
For “s18269 (CCATTGCGGAGATCAAGAA; chemistry not given here)”, the Score_si4 was 0.18.
“s18271 (CCTCTTCACTAAGACCCAT; chemistry not given here)” was tested, and the Score_si3 was 1.67.
Work on “s18704 (sense GCAGATTATTTGCAAGCGA; chemistry not given here) [reference compound]” yielded a Score_si3 of -0.73.
“s18705 (sense GCTCGTTACCTACATAGTA; chemistry not given here) [reference compound]” gave a Score_si2 of -0.84.
In the case of “s18706 (sense GAATCTGAACGAACGATAT; chemistry not given here) [reference compound]”, the Score_si4 is reported as -0.67.
Substance “s18906 (sense GAAGGAATTTCATTTGACA; chemistry not given here)” has a Score_si3 of 1.68.
For “s18908 (sense GCAGATCACATGAAGAGAA; chemistry not given here)”, the Score_si2 was 1.75.
“s19038 (sense GGAATATTCTTCAGCTACA; chemistry not given here)” gave a Score_si3 of 1.51.
Substance “s19040 (sense GTACATAACATCAATTTCA; chemistry not given here)” has a Score_si4 of 0.32.
With “s19089 (sense GGATAAGACAGTAACCCGA; chemistry not given here) [reference compound]” the Score_si3 was -0.56.
“s19090 (sense GGATCTGACTATTCGCACT; chemistry not given here) [reference compound]” was tested, and the Score_si4 was 0.04.
In the case of “s19091 (sense CAACAACCTTACACGAGTA; chemistry not given here) [reference compound]”, the Score_si2 is reported as -0.78.
Work on “s19989 (sense CTATGCTACCCTCTACTTT; chemistry not given here)” yielded a Score_si4 of 0.18.
Substance “s19990 (sense GGCTCTGACTACAAACTGA; chemistry not given here)” has a Score_si3 of 0.89.
For “s20340 (sense CAGGCTATCTGAACACGGT; chemistry not given here)”, the Score_si3 was 1.49.
“s20508 (sense CACTTGAGGAGTTACTGAA; chemistry not given here) [reference compound]” gave a Score_si4 of -0.76.
In the case of “s20509 (sense GGACGGCCCAAATCCAAAA; chemistry not given here) [reference compound]”, the Score_si3 is reported as -0.99.
With “s20629 (sense GGAGAAAGAATCAACGGAA; chemistry not given here)” the Score_si2 was 2.
In the case of “s20630 (sense GCAAGCTGCTGATCGAGTT; chemistry not given here)”, the Score_si4 is reported as 0.85.
For “s20631 (sense GGACGGAAGCGAAAATCGA; chemistry not given here)”, the Score_si3 was 1.89.
“s20649 (sense GAATTACGGAGTCAACAAA; chemistry not given here) [reference compound]” gave a Score_si3 of -1.04.
In the case of “s20833 (sense GAATATGACTCTGCAAAGA; chemistry not given here)”, the Score_si4 is reported as 0.65.
“s21424 (sense GCAGTGAAATATCCATGAT; chemistry not given here)” gave a Score_si2 of 0.74.
“s21425 (sense GCCTGTTACAGATGACATA; chemistry not given here)” gave a Score_si3 of 0.63.
“s21552 (sense TCGCTTCTGTATTTATGTT; chemistry not given here)” gave a Score_si2 of 1.41.
“s21554 (sense CAGTATTGGTTATGAGTCT; chemistry not given here)” was tested, and the Score_si4 was 0.67.
“s21624 (sense GGTGTAACCGATTCACTAT; chemistry not given here)” showed a Score_si3 of 0.86.
With “s21625 (sense GCAGCCTTGTTGCTCTTAA; chemistry not given here)” the Score_si2 was 1.37.
Work on “s21626 (sense GGCAGTTGATTGTGGATGA; chemistry not given here)” yielded a Score_si4 of 0.37.
For “s24800 (sense CTATGGATGTTGATGTAGA; chemistry not given here)”, the Score_si2 was 1.78.
With “s24801 (sense CCAAGGTCCTGAGGTCTAA; chemistry not given here)” the Score_si3 was 1.43.
“s24923 (sense GGAAGTGAAGGAGTAAGTA; chemistry not given here) [reference compound]” showed a Score_si4 of -0.27.
“s24924 (sense CAGTCGTCCTCAGATGATA; chemistry not given here) [reference compound]” gave a Score_si3 of -0.67.
Work on “s25038 (sense GGTCTTTACTAGGTGTATT; chemistry not given here) [reference compound]” yielded a Score_si4 of -0.18.
In the case of “s25039 (sense CAAATTTCCTGTTAATCGA; chemistry not given here) [reference compound]”, the Score_si3 is reported as -0.41.
Work on “s25184 (sense CCCATCAACTTCTCCGTGA; chemistry not given here)” yielded a Score_si4 of 0.53.
“s25186 (sense ACTTCTCCGTGATCCTGAA; chemistry not given here)” gave a Score_si2 of 1.53.
In the case of “s25485 (sense ACTTCCTGTTGGTCTACAA; chemistry not given here)”, the Score_si3 is reported as 1.19.
“s25486 (sense GGTCTACAATCGGATGACA; chemistry not given here)” was tested, and the Score_si4 was 1.05.
“s25487 (sense AGTATTTGTTGGTTCATAA; chemistry not given here)” showed a Score_si2 of 1.54.
Substance “s25624 (sense GGAATGGTGTTGATACAAA; chemistry not given here) [reference compound]” has a Score_si3 of -0.7.
“s25626 (sense CAAATCCTATAGTATAACA; chemistry not given here) [reference compound]” was tested, and the Score_si4 was -0.37.
In the case of “s26119 (sense CATGGATGAGTTTACCCAA; chemistry not given here) [reference compound]”, the Score_si3 is reported as -0.65.
Substance “s26120 (sense GGCCCTTCATCGATAGCTA; chemistry not given here) [reference compound]” has a Score_si2 of -0.97.
Substance “s26228 (sense GAACCTCACTGAGCCTTGA; chemistry not given here)” has a Score_si2 of 0.75.
“s26229 (sense GGTGGTATACGGGACCAAT; chemistry not given here)” gave a Score_si3 of -0.1.
For “s26230 (sense CGGGACCAATTACCGCAAA; chemistry not given here)”, the Score_si4 was -0.18.
With “s26801 (sense CCGAGAACCTCACAGAGAA; chemistry not given here)” the Score_si1 was 2.26.
Work on “s26802 (sense ACATCTCAGGGACCCATTT; chemistry not given here)” yielded a Score_si4 of 1.65.
With “s26872 (sense GGGTTGACCTCATCCTCGA; chemistry not given here)” the Score_si4 was 1.69.
“s26873 (sense CTTCGAGACCGGTTCAAGA; chemistry not given here)” gave a Score_si1 of 2.15.
“s27208 (sense GACACTTGTTTCTTACCTA; chemistry not given here) [reference compound]” gave a Score_si4 of 0.22.
Substance “s27209 (sense GGGTATAGAGGATAACCAA; chemistry not given here) [reference compound]” has a Score_si2 of -0.58.
